These results are taken from PubChem BioAssay AID256 (DTP/NCI, 2004).

Several values for one entry are separate records, joined by “and”; a condition that tells them apart may be missing. Equal entries are not always repeated. Toxic doses and inconclusive results are not listed.

For the experiment, the system named is CD2F1 mice, L1210 leukemia ip, survival T/C. Kind of experiment: NCI In Vivo Anticancer Drug Screen. Data for tumor model L1210 Leukemia (intraperitoneal) in CD2F1 (CDF1) mice. The settings on record: higher = longer survival. The gist of the method:
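Vehicle-treated tumor-bearing mice served as controls (C) for compound-treated mice (T). Reported figure is T divided by C.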

Setting [1] is: endpoint: mean survival time, dose: 100.0 mg/kg/injection, schedule: Q01DX001 (ip), vehicle: saline.
Where [2] appears, read: endpoint: mean survival time, dose: 200.0 mg/kg/injection, schedule: Q01DX001 (ip), vehicle: saline.
Where [3] appears, read: endpoint: mean survival time, dose: 400.0 mg/kg/injection, schedule: Q01DX001 (ip), vehicle: saline.
Where [4] appears, read: endpoint: mean survival time, dose: 6.25 mg/kg/injection, schedule: Q01DX009 (ip), vehicle: saline with Tween-80.
Where [5] appears, read: endpoint: mean survival time, dose: 12.5 mg/kg/injection, schedule: Q01DX009 (ip), vehicle: saline with Tween-80.
The mark [6] stands for this setting: endpoint: mean survival time, dose: 100.0 mg/kg/injection, schedule: Q01DX001 (ip), vehicle: Klucel (hydroxypropylcellulose) (HPC).
[7] abbreviates: endpoint: mean survival time, dose: 200.0 mg/kg/injection, schedule: Q01DX001 (ip), vehicle: Klucel (hydroxypropylcellulose) (HPC).

With `CC(=O)NCCc1ccc2c(c1)[nH]c1ccccc12`, the T/C runs as follows: under setting [1], 101 % of control; under setting [2], 100 % of control; under setting [3], 93 % of control.
Regarding `CN(C)c1ccc(C2OC3(CCCCC3)C[N+]23CCCC3)cc1` (configuration not stated), the T/C is 101 % of control (endpoint: mean survival time, dose: 3.12 mg/kg/injection, schedule: Q01DX009 (ip), vehicle: saline with Tween-80); 97 % of control under setting [4]; 97 % of control under setting [5].
With `CCCCCCN=C(N)NC(=O)OC`, the T/C was 87 % of control under setting [4]; 100 % of control under setting [5]; 100 % of control (endpoint: mean survival time, dose: 25.0 mg/kg/injection, schedule: Q01DX009 (ip), vehicle: saline with Tween-80).
Consider `Cc1cc2c(Cl)ncnc2[nH]1`, for which the T/C by setting is: (endpoint: median survival time, dose: 25.0 mg/kg/injection, schedule: Q01DX005 (ip), vehicle: saline) 95 % of control; (endpoint: median survival time, dose: 50.0 mg/kg/injection, schedule: Q01DX005 (ip), vehicle: saline) 90 % of control; (endpoint: median survival time, dose: 100.0 mg/kg/injection, schedule: Q01DX005 (ip), vehicle: saline) 101 % of control.
As to `CP(=O)(c1ccccc1)c1ccccc1`, the T/C runs as follows: (endpoint: mean survival time, dose: 100.0 mg/kg/injection, schedule: Q01DX001 (ip), vehicle: saline with Tween-80) 100 % of control; (endpoint: mean survival time, dose: 200.0 mg/kg/injection, schedule: Q01DX001 (ip), vehicle: saline with Tween-80) 103 % of control; (endpoint: mean survival time, dose: 400.0 mg/kg/injection, schedule: Q01DX001 (ip), vehicle: saline with Tween-80) 98 % of control.
For the compound `CCCCCCCCOc1nccc(N)n1`, the T/C is, setting by setting: (endpoint: mean survival time, dose: 18.75 mg/kg/injection, schedule: Q01DX001 (ip), vehicle: saline with Tween-80) 105 % of control; (endpoint: mean survival time, dose: 37.5 mg/kg/injection, schedule: Q01DX001 (ip), vehicle: saline with Tween-80) 100 % of control; (endpoint: mean survival time, dose: 75.0 mg/kg/injection, schedule: Q01DX001 (ip), vehicle: saline with Tween-80) 94 % of control.
In the case of `c1ccc(C2CC([P+](c3ccccc3)(c3ccccc3)c3ccccc3)=NN2)cc1` (configuration not stated), the T/C reads like this: (endpoint: mean survival time, dose: 2.7 mg/kg/injection, schedule: Q01DX009 (ip), vehicle: Klucel (hydroxypropylcellulose) (HPC)) 110 % of control; (endpoint: mean survival time, dose: 4.1 mg/kg/injection, schedule: Q01DX009 (ip), vehicle: Klucel (hydroxypropylcellulose) (HPC)) 112 % of control; (endpoint: mean survival time, dose: 5.5 mg/kg/injection, schedule: Q04DX003 (ip), vehicle: Klucel (hydroxypropylcellulose) (HPC)) 106 % of control; (endpoint: mean survival time, dose: 6.25 mg/kg/injection, schedule: Q01DX009 (ip), vehicle: Klucel (hydroxypropylcellulose) (HPC)) 108 % of control; (endpoint: mean survival time, dose: 8.2 mg/kg/injection, schedule: Q04DX003 (ip), vehicle: Klucel (hydroxypropylcellulose) (HPC)) 106 % of control; (endpoint: mean survival time, dose: 9.3 mg/kg/injection, schedule: Q01DX009 (ip), vehicle: Klucel (hydroxypropylcellulose) (HPC)) 110 % of control. Further, the T/C reads like this: (endpoint: mean survival time, dose: 11.0 mg/kg/injection, schedule: Q04DX002 (ip), vehicle: Klucel (hydroxypropylcellulose) (HPC)) 102 % of control; (endpoint: mean survival time, dose: 12.5 mg/kg/injection, schedule: Q04DX003 (ip), vehicle: Klucel (hydroxypropylcellulose) (HPC)) 104 % of control; (endpoint: mean survival time, dose: 14.0 mg/kg/injection, schedule: Q01DX009 (ip), vehicle: Klucel (hydroxypropylcellulose) (HPC)) 102 % of control; (endpoint: mean survival time, dose: 16.0 mg/kg/injection, schedule: Q04DX002 (ip), vehicle: Klucel (hydroxypropylcellulose) (HPC)) 95 % of control; (endpoint: mean survival time, dose: 18.0 mg/kg/injection, schedule: Q04DX003 (ip), vehicle: Klucel (hydroxypropylcellulose) (HPC)) 108 % of control; (endpoint: mean survival time, dose: 22.0 mg/kg/injection, schedule: Q01DX001 (ip), vehicle: Klucel (hydroxypropylcellulose) (HPC)) 104 % of control. Also, the T/C runs as follows: (endpoint: mean survival time, dose: 25.0 mg/kg/injection, schedule: Q04DX002 (ip), vehicle: Klucel (hydroxypropylcellulose) (HPC)) 102 % of control; (endpoint: mean survival time, dose: 28.0 mg/kg/injection, schedule: Q04DX003 (ip), vehicle: Klucel (hydroxypropylcellulose) (HPC)) 108 % of control; (endpoint: mean survival time, dose: 35.0 mg/kg/injection, schedule: Q01DX001 (ip), vehicle: Klucel (hydroxypropylcellulose) (HPC)) 110 % of control; (endpoint: mean survival time, dose: 35.0 mg/kg/injection, schedule: Q04DX002 (ip), vehicle: Klucel (hydroxypropylcellulose) (HPC)) 96 % of control; (endpoint: mean survival time, dose: 55.0 mg/kg/injection, schedule: Q04DX002 (ip), vehicle: Klucel (hydroxypropylcellulose) (HPC)) 104 % of control.
Regarding `CC1(C)OC2COC3(COC(C)(C)O3)C(OS(C)(=O)=O)C2O1` (configuration not stated), the T/C by setting is: (endpoint: mean survival time, dose: 100.0 mg/kg/injection, schedule: Q01DX009 (ip), vehicle: saline with Tween-80) 102 % of control; (endpoint: mean survival time, dose: 200.0 mg/kg/injection, schedule: Q01DX009 (ip), vehicle: saline with Tween-80) 93 % of control; (endpoint: mean survival time, dose: 400.0 mg/kg/injection, schedule: Q01DX009 (ip), vehicle: saline with Tween-80) 95 % of control.
With `CC12CCC3C(CCC4CC(OC(=O)Cc5ccc(N(CCCl)CCCl)cc5)CCC43C)C1CCC(=O)N2` (configuration not stated), the T/C is, setting by setting: (endpoint: mean survival time, dose: 0.75 mg/kg/injection, schedule: Q01DX009 (ip), vehicle: saline with Tween-80) 98 % of control; (endpoint: mean survival time, dose: 1.5 mg/kg/injection, schedule: Q01DX009 (ip), vehicle: saline with Tween-80) 102 % of control; (endpoint: mean survival time, dose: 3.0 mg/kg/injection, schedule: Q01DX009 (ip), vehicle: saline with Tween-80) 108 % of control; (endpoint: mean survival time, dose: 6.0 mg/kg/injection, schedule: Q01DX009 (ip), vehicle: saline with Tween-80) 112 % of control; (endpoint: mean survival time, dose: 12.0 mg/kg/injection, schedule: Q01DX009 (ip), vehicle: saline with Tween-80) 122 % of control; (endpoint: median survival time, dose: 3.0 mg/kg/injection, schedule: Q01DX009 (ip), vehicle: saline with Tween-80) 115 % of control. The T/C reads like this: (endpoint: median survival time, dose: 6.0 mg/kg/injection, schedule: Q01DX009 (ip), vehicle: saline with Tween-80) 119 % of control; (endpoint: median survival time, dose: 24.0 mg/kg/injection, schedule: Q01DX009 (ip), vehicle: saline with Tween-80) 166 % of control and 168 % of control; (endpoint: median survival time, dose: 48.0 mg/kg/injection, schedule: Q01DX009 (ip), vehicle: saline with Tween-80) 98 % of control and 111 % of control.
Consider `Nc1c(-c2nccc(=O)[nH]2)ncn1C1OC(CO)C(O)C1O` (configuration not stated), for which the T/C is 102 % of control (endpoint: median survival time, dose: 12.5 mg/kg/injection, schedule: Q01DX005 (ip), vehicle: saline with Tween-80); 96 % of control (endpoint: median survival time, dose: 25.0 mg/kg/injection, schedule: Q01DX005 (ip), vehicle: saline with Tween-80); 103 % of control (endpoint: median survival time, dose: 50.0 mg/kg/injection, schedule: Q01DX005 (ip), vehicle: saline with Tween-80); 98 % of control (endpoint: median survival time, dose: 100.0 mg/kg/injection, schedule: Q01DX005 (ip), vehicle: saline with Tween-80); 102 % of control (endpoint: median survival time, dose: 200.0 mg/kg/injection, schedule: Q01DX005 (ip), vehicle: saline with Tween-80).
With `Oc1ccc(NC(=S)Nc2ccccc2)cc1`, the T/C was 98 % of control under setting [1], 98 % of control under setting [2] and 96 % of control under setting [3].
For the compound `CCCC(O)C(N)CC` (configuration not stated), the T/C is, setting by setting: under setting [1], 98 % of control; under setting [2], 90 % of control.
As for `Cc1cc(=O)[nH]cn1`, the T/C reads like this: (endpoint: mean survival time, dose: 100.0 mg/kg/injection, schedule: Q04DX002 (ip), vehicle: saline) 105 % of control; (endpoint: mean survival time, dose: 200.0 mg/kg/injection, schedule: Q04DX002 (ip), vehicle: saline) 105 % of control; (endpoint: mean survival time, dose: 400.0 mg/kg/injection, schedule: Q04DX002 (ip), vehicle: saline) 97 % of control.
Turning to `N#Cc1ccc(NC=O)cc1`, the T/C is, setting by setting: (endpoint: mean survival time, dose: 100.0 mg/kg/injection, schedule: Q04DX003 (ip), vehicle: Klucel (hydroxypropylcellulose) (HPC)) 98 % of control; (endpoint: mean survival time, dose: 200.0 mg/kg/injection, schedule: Q04DX003 (ip), vehicle: Klucel (hydroxypropylcellulose) (HPC)) 98 % of control; (endpoint: mean survival time, dose: 400.0 mg/kg/injection, schedule: Q04DX003 (ip), vehicle: Klucel (hydroxypropylcellulose) (HPC)) 102 % of control.
Take `OC(c1ccccc1)(c1ccccc1)c1ccccc1C(O)(c1ccccc1)c1ccccc1`: the T/C reads like this: under setting [6], 90 % of control; under setting [7], 90 % of control.
Regarding `CCCCCCCCC(=O)O`, the T/C was 100 % of control (endpoint: mean survival time, dose: 100.0 mg/kg/injection, schedule: Q04DX003 (ip), vehicle: saline with Tween-80); 100 % of control (endpoint: mean survival time, dose: 200.0 mg/kg/injection, schedule: Q04DX003 (ip), vehicle: saline with Tween-80); 102 % of control (endpoint: mean survival time, dose: 400.0 mg/kg/injection, schedule: Q04DX003 (ip), vehicle: saline with Tween-80).
As for `CC(=O)Nc1cc(S(=O)(=O)O)cc(N)c1O`, the T/C is 114 % of control under setting [6]; 103 % of control under setting [7]; 106 % of control (endpoint: mean survival time, dose: 400.0 mg/kg/injection, schedule: Q01DX001 (ip), vehicle: Klucel (hydroxypropylcellulose) (HPC)).
For `CCOC(=O)CC(=O)C(F)(F)F.CCOC(=O)CC(=O)C(F)(F)F.[Ni]`, the T/C (endpoint: mean survival time, dose: 150.0 mg/kg/injection, schedule: Q01DX001 (ip), vehicle: saline) was 115 % of control.
